Experiment [1] deals with Plasma. The experiment in a line: Anticoagulant activity in rabbit plasma assessed as prothrombin time. It counts as functional, Oryctolagus cuniculus.
The subject of experiment [2] is Plasma. The experiment in a line: Anticoagulant activity in rabbit plasma assessed as activated partial thromboplastin time. It is filed as functional, Oryctolagus cuniculus.
Experiment [3] concerns Plasma. The experiment in a line: Anticoagulant activity in rabbit plasma assessed as thrombin time. It counts as functional, Oryctolagus cuniculus.
The species named for experiment [4] is Rattus norvegicus. Kind of experiment: Antiplatelet aggregration activity in arteriovenous bypass thrombosis rat model assessed as aggregation inhibition rate relative to control. It counts as functional.
Experiment [5] has as its system Plasma (Mus musculus). The experiment in a line: Anticoagulant activity in mouse plasma assessed as prothrombin time.
Experiment [6] in a line: Antiplatelet activity in platelet (unknown origin) assessed as inhibition of ADP-induced platelet aggregation relative to control. It counts as functional, cell-based.
The target of experiment [7] is Coagulation factor X (Mus musculus, UniProt O88947). The experiment in a line: Inhibition of mouse FXa.
Experiment [8] in a line: Antiplatelet activity in human platelet. It is filed as functional, cell-based.
Experiment [9] deals with Blood. The experiment in a line: Antithrombotic activity in photochemically induced arterial thrombosis Cynomolgus monkey blood assessed as decrease in occlusion time (reference value: 119 +/- 17.40 min). It counts as functional, Macaca fascicularis.
The test system of experiment [10] is Blood. Kind of experiment: Antithrombotic activity in ferric chloride-treated carotid artery thrombosis Sprague-dawley rat blood assessed as clot weight at 10 mg/kg (RVB = 72.50 +/- 2 mg). It counts as functional.
The subject of experiment [11] is Blood. Kind of experiment: Antithrombotic activity in ferric chloride-treated carotid artery thrombosis Sprague-dawley rat blood assessed as clot weight at 50 mg/kg (RVB = 72.50 +/- 2 mg). It is filed as functional.
For experiment [12], the species on record is Rattus norvegicus. The experiment in a line: Antithrombotic activity in arteriovenous bypass thrombo-genesis rat model assessed as quality of thrombosis. It counts as functional.
Experiment [13] has as its system Plasma. The experiment in a line: Antithrombotic activity in rat plasma. It is filed as functional.
The target of experiment [14] is P2Y purinoceptor 1 (Homo sapiens, UniProt P47900). Kind of experiment: Antagonist activity at P2Y1 receptor (unknown origin). It is filed as functional.
In experiment [15] the test system is Plasma. The experiment in a line: Antiplatelet activity in rabbit plasma assessed as inhibition of arachidonic acid induced platelet aggregation. It counts as functional, cell-free. As to conditions: Oryctolagus cuniculus.
Experiment [16] deals with Plasma. The experiment in a line: Antithrombotic activity in human plasma assessed as thrombin time. It is filed as functional.
Experiment [17] addresses Prothrombin (Homo sapiens, UniProt P00734). The experiment in a line: Inhibition of thrombin in human plasma. It is filed as cell-free.
Experiment [18] relates to Plasma. The experiment in a line: Anticoagulant activity in mouse plasma assessed inhibition of thrombin-induced platelet aggregation. It counts as functional, cell-free.
Experiment [19] in a line: Antiplatelet aggregation activity in rabbit platelet assessed as reduction in ADP-induced platelet aggregation. As to conditions: Oryctolagus cuniculus. It is filed as functional, cell-based.
Experiment [20] has as its system Plasma. The experiment in a line: Antiplatelet aggregation activity in rabbit plasma incubated for 5 mins. It counts as functional, cell-free. The conditions noted are these: Oryctolagus cuniculus.
The subject of experiment [21] is Plasma. Kind of experiment: Antithrombotic activity in mouse plasma assessed as clotting time administered IV.
The test system of experiment [22] is Plasma. Kind of experiment: Antithrombotic activity in mouse plasma assessed as prothrombin time administered IV.

SMILES strings stand for the structures. In brackets after ≈: the same amount, converted by molar mass.

Coagulation factor X, sequence (O88947 41-180 limits assumed): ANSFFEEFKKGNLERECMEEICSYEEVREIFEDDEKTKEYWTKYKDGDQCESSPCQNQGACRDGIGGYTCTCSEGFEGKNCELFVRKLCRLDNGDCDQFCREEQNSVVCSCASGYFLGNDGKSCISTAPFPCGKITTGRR
Coagulation factor X, sequence (O88947 232-481 limits assumed): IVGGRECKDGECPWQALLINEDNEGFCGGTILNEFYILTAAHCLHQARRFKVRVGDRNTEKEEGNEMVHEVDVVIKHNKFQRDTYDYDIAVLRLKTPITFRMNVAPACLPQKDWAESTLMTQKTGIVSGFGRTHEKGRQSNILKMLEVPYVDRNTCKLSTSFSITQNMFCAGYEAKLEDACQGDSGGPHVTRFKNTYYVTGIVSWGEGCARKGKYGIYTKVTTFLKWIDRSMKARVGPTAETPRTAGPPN
P2Y purinoceptor 1, sequence (P47900 whole entry): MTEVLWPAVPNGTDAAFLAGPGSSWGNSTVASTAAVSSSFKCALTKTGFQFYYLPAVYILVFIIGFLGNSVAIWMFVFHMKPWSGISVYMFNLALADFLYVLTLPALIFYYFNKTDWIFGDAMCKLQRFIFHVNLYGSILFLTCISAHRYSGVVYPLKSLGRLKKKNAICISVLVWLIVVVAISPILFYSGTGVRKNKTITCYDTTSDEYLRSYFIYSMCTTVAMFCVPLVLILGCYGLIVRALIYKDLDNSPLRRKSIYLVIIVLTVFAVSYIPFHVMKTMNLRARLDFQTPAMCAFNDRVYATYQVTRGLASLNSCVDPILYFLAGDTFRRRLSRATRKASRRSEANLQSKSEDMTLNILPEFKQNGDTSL

Regarding `COc1cc(O)cc2oc(-c3ccc(O)c(O)c3)c(O)c(=O)c12`, the Time in experiment [1] is recorded as 49.2 s; in experiment [2] it was 7.6 s; in [3] it was 19.4 s.

`COc1cc(/C=C/C(=O)OCCOCCO[N+](=O)[O-])ccc1OC(=O)c1ccccc1OC(C)=O`: in experiment [4], the “inhibition (INH)” value is listed as 16%.

With `COC(=O)c1ccccc1OCCOc1ccc2c(C)cc(=O)oc2c1`, the Time in experiment [5] stood at 8.44 s.

On to `COc1cc(/C=C/C(=O)O)ccc1OCCN(C)C`, for which the “inhibition (INH)” value in experiment [6] amounted to 83.1%.

With `CC(=O)Oc1ccccc1C(=O)Oc1ccc(/C=C/C(=O)OCCCCO[N+](=O)[O-])cc1`, the “inhibition (INH)” value in experiment [4] was 43.9%.

For `COc1cc(/C=C/C(=O)O)ccc1OCCN1CCOCC1`, in [6], the “inhibition (INH)” value was found to be 91.4%.

For `CC(=N)N1CCC(Oc2ccc3c(c2)C(=O)NS(=O)(=O)N3CC(=O)Nc2cccc(C(=N)N)c2)CC1`, in experiment [7], half-maximal inhibition (IC50) required 0.0025 µM.

In the case of `COc1cc(/C=C/C(=O)OCc2c(-c3ccccc3)no[n+]2[O-])ccc1OC(=O)c1ccccc1OC(C)=O`, the “inhibition (INH)” value in [4] amounted to 12.1%.

Consider `CC(=N)N1CCC(Oc2ccc3c(c2)C(=O)NS(=O)(=O)N3C/C=C/c2cccc(C(=N)N)c2)CC1`, for which 0.0028 µM corresponded to half-maximal inhibition in [7] (IC50).

In the case of `CC(=N)N1CCC(Oc2ccc(N(Cc3ccc4ccc(C(=N)N)cc4c3)S(=O)(=O)CC(=O)O)cc2)CC1` [YM-60828], in experiment [7], the IC50 – broadly, the concentration at which inhibition is half-maximal – came out at 0.006 µM.

The compound `CC1CC(=O)NN=C1c1ccc(NC(=O)CN2CCCCC2)cc1` (stereo not given) returned an IC50 in [8] of 0.05 µM.

Consider `O=C(COCC(=O)N1CCN(C(c2ccccc2)c2ccccc2)CC1)Nc1ccc(Cl)cc1C(=O)[O-].[Na+]`, for which, in experiment [9], the Time worked out at 53.9 min. In addition, the results for the Activity in [10] and in [11] were 60.9 mg and 56.8 mg, respectively.

`CC(=O)Oc1ccccc1C(=O)O` [ASPIRIN]: in [4], the “inhibition (INH)” value is on record as 14.7%. In experiment [12], the Activity was 10.5 mg.

For `N#Cc1ccc(SC2SC[C@H](O)[C@@H](O)[C@H]2O)cc1` (stereo not given in full), in experiment [13], the ED50 (as a rule, the dose at which the effect has come halfway, by size or by number of responders) came out at 15 mg/kg.

In experiment [8], `CC1CC(=O)NN=C1c1ccc(NC(=O)Cn2ccnc2)cc1` (stereo not given) came in with an IC50 of 0.06 µM.

In experiment [14], `CNc1nc(Cl)nc2c1ncn2CCC(COP(=O)(O)O)COP(=O)(O)O` registered an IC50 of 0.84 µM.

For the compound `COc1ccc(-n2nc(C(N)=O)c3c2C(=O)N(c2ccc(N4CCCCC4=O)cc2)CC3)cc1` [APIXABAN], in [1], the Time was 10 s.

`CC(=N)N1CCC(Oc2ccc3c(c2)C(=O)NS(=O)(=O)N3Cc2ccc3ccc(C(=N)N)cc3c2)CC1` registered an IC50 in experiment [7] of 0.0021 µM.

For `N#Cc1ccc(S[C@H]2C[C@@H](O)[C@H](O)CS2)cc1`, in [13], the 50% effect level (ED50) was put at a dose of 7 mg/kg.

Consider `COc1cc(/C=C/C(=O)OCCCCCCCCCOc2no[n+]([O-])c2S(=O)(=O)c2ccccc2)ccc1OC(=O)c1ccccc1OC(C)=O`, for which, in experiment [4], the “inhibition (INH)” value was found to be 15.7%.

Regarding `COc1cc(C(=O)Nc2cc(C(N)=O)ccc2NC(=O)c2ccc(-n3ccccc3=O)cc2)ccc1O`, the Time in experiment [1] is listed as 8.8 s.

Regarding `CCCN(CCC)CC(=O)Nc1ccc(C2=NNC(=O)CC2C)cc1` (stereo not given), the IC50 in experiment [8] is 0.085 µM.

On to `O=C(CC1Nc2c(ccc(Cl)c2[N+](=O)[O-])OC1=O)c1ccc(Br)cc1` (stereo not given), for which the IC50 in experiment [15] amounted to 17 µg/mL (≈ 39.8 µM).

In the case of `CC1(C)[C@@H](OC(=O)c2ccccc2C(=O)O)CC[C@]2(C)[C@H]3C(=O)C=C4[C@@H]5C[C@@](C)(C(=O)O)CC[C@]5(C)CC[C@@]4(C)[C@]3(C)CC[C@@H]12`, the Time in experiment [16] is on record as 118.3 s. The same compound came in with an IC50 in experiment [17] of 114 µM.

In the case of `CCCCCOC(=O)C/N=C(\N)c1ccc(CC2c3nc4cc(C(=O)N(CCC(=O)OCC)c5ccccc5)ccc4n3CCN2CC(=O)OCCCCC)cc1` (stereo not given), the IC50 in experiment [18] is 0.57 µM.

Take `O=C(O)/C=C/c1ccc(Cn2ccnc2)cc1` [OZAGREL]: the IC50 in experiment [19] came to 2850 µM.

`COc1cc(/C=C/C(=O)O)ccc1OCc1cccnc1`: in experiment [19], the IC50 came out at 1760 µM.

Regarding `COc1cc(/C=C/C(=O)O)ccc1O` [FERULATE], in [19], the half-maximal inhibitory concentration (IC50) worked out at 19600 µM.

Turning to `CCN1C(=O)COc2cc(NC(=O)CCCl)ccc21`, the IC50 in experiment [20] came out at 8.94 µM.

As for `O=C(Nc1ccc2oc(=O)ccc2c1)c1ccc(-c2noc(CCl)n2)cc1`, the figures for the Time in experiment [21] and in [22] were 17.7 s and 42.3 s, respectively.

Consider `COc1cc(OC)c2c(=O)c(O)c(-c3ccc(O)c(O)c3)oc2c1`, for which the Time in [1] is 67.6 s; in experiment [2], 6.9 s; in experiment [3] it was 21.8 s.

The values are drawn from ChEMBL document CHEMBL5126515, “Progress of thrombus formation and research on the structure-activity relationship for antithrombotic drugs” (Eur J Med Chem, 2022).
